pIC50, pKd: −log10 of the molar value.
Legend:
[1] = target: GDP-bound NRAS wild-type protein (Homo sapiens, UniProt P01111); assay: Binding to NRAS by surface plasmon resonance (SPR), Single Cycle Kinetics; conditions: SPR; GDP-bound NRAS wild-type protein vs GDP-bound KRAS wild-type protein; KD ratio class
[2] = system: human lung cancer strain NCI-H441;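 note: cell proliferation inhibition after four days measured by CellTiter-Glo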
[3] = target: GDP-bound KRAS wild-type protein (Homo sapiens, UniProt P01116); assay: Binding to KRAS by surface plasmon resonance (SPR), Single Cycle Kinetics; conditions: SPR, Single Cycle Kinetics, 1:1 binding model; GDP-bound KRAS wild-type protein; read-out: KRAS KD
[4] = target: GDP-bound HRAS wild-type protein (Homo sapiens, UniProt P01112); assay: Binding to HRAS by surface plasmon resonance (SPR), Single Cycle Kinetics; conditions: SPR; GDP-bound HRAS wild-type protein vs GDP-bound KRAS wild-type protein; KD ratio class
Sequence of GDP-bound HRAS wild-type protein (P01112 whole entry): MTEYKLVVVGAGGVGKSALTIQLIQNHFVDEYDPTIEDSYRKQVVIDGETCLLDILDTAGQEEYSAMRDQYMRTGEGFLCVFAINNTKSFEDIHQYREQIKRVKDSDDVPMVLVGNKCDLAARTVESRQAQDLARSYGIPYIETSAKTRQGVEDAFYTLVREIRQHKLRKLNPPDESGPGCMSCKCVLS

Sequence of GDP-bound NRAS wild-type protein (P01111 whole entry): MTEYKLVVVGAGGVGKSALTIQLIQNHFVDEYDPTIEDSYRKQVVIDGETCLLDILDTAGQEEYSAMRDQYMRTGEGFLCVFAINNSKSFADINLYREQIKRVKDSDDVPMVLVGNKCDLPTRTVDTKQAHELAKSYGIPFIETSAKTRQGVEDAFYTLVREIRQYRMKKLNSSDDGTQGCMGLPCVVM
Sequence of GDP-bound KRAS wild-type protein (P01116 whole entry): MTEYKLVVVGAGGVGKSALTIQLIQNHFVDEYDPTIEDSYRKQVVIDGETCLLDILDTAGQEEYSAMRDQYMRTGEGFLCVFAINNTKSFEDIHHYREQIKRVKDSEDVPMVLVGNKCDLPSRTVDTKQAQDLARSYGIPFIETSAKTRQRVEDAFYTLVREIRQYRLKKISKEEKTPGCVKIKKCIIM

Row | SMILES | NRAS/KRAS (ratio of KD value for NRAS to KD value for KRAS) [1] | pIC50 [2] | pKd [3] | HRAS/KRAS (ratio of KD value for HRAS to KD value for KRAS) [4]
1 | CC[C@H](C)[C@@H]1NC(=O)[C@H](CC)N(C)C(=O)C[C@@H](C(=O)N(C)C)N(C)C(=O)[C@H](C2CCCC2)N(C)C(=O)C2(CCC2)NC(=O)[C@@H]2C[C@H](C)CN2C(=O)[C@H](CCc2cc(F)c(C(F)(F)F)c(F)c2)NC(=O)CN(C)C(=O)[C@H](CC2CCC(F)(F)CC2)N2CC/C=C\C[C@@H](C2=O)N(C)C(=O)CN(C)C1=O [PP1457, (2S,8S,12S,14S,20S,23S,27S,30S,36S,38Z)-20-cyclopentyl-2-[(4,4-difluorocyclohexyl)methyl]-8-[2-[3,5-difluoro-4-(trifluoromethyl)phenyl]ethyl]-27-ethyl-N,N,4,12,19,22,26,32,35-nonamethyl-30-[(1S)-1-methylpropyl]-3,6,9,15,18,21,25,28,31,34,42-undecaoxo-spiro[1,4,7,10,16,19,22,26,29,32,35-undecazatricyclo[34.5.1.0^10,14]dotetracont-38-ene-17,1′-cyclobutane]-23-carboxamide] | A (a compound having 10 or more and less than 20 is denoted as A) | 7.52 | 9.82 | A (a compound having 10 or more and less than 20 is denoted as A)
2 | CCO[C@@H]1C[C@H]2C(=O)NC3(CCC3)C(=O)N(C)[C@@H](C3CCCC3)C(=O)N(C)[C@H](C(=O)N(C)C)CC(=O)N(C)[C@@H](CC3CCCC3)C(=O)N[C@@H]([C@@H](C)CC)C(=O)N(C)CC(=O)N(C)[C@H]3C/C=C\CCN(C3=O)[C@@H](CC3CCC(F)(F)CC3)C(=O)N(C)CC(=O)N[C@@H](CCc3cc(F)c(C(F)(F)F)c(F)c3)C(=O)N2C1 [PP1458] | A (a compound having 10 or more and less than 20 is denoted as A) | 7.74 | 9.82 | A (a compound having 10 or more and less than 20 is denoted as A)
3 | CCO[C@@H]1C[C@H]2C(=O)NC3(CCCC3)C(=O)N(C)[C@@H](C3CCCC3)C(=O)N(C)[C@H](C(=O)N(C)C)CC(=O)N(C)[C@@H](CC(C)C)C(=O)N[C@@H]([C@@H](C)CC)C(=O)N(C)CC(=O)N(C)[C@H]3C/C=C\CCN(C3=O)[C@@H](CC3CCC(F)(F)CC3)C(=O)N(C)CC(=O)N[C@@H](CCc3cc(F)c(C(F)(F)F)c(F)c3)C(=O)N2C1 [PP1459] | A (a compound having 10 or more and less than 20 is denoted as A) | 7.41 | 9.70 | A (a compound having 10 or more and less than 20 is denoted as A)
4 | CCO[C@@H]1C[C@H]2C(=O)NC3(CCC3)C(=O)N(C)[C@@H](C3CCCC3)C(=O)N(C)[C@H](C(=O)N(C)C)CC(=O)N(C)[C@@H](CC(C)(C)C)C(=O)N[C@@H]([C@@H](C)CC)C(=O)N(C)CC(=O)N(C)[C@H]3C/C=C\CCN(C3=O)[C@@H](CC3CCC(F)(F)CC3)C(=O)N(C)CC(=O)N[C@@H](CCc3cc(F)c(C(F)(F)F)c(F)c3)C(=O)N2C1 [PP1460] | A (a compound having 10 or more and less than 20 is denoted as A) | 7.48 | 9.64 | A (a compound having 10 or more and less than 20 is denoted as A)
5 | CC[C@H](C)[C@@H]1NC(=O)[C@H](CC)N(C)C(=O)C[C@@H](C(=O)N(C)C)N(C)C(=O)[C@H](C2CCCC2)N(C)C(=O)C2(CCC2)NC(=O)[C@@H]2CCCN2C(=O)[C@H](CCc2cc(F)c(C(F)(F)F)c(F)c2)NC(=O)CN(C)C(=O)[C@H](CC2CCC(F)(F)CC2)N2CC/C=C\C[C@@H](C2=O)N(C)C(=O)CN(C)C1=O [PP1461] | A (a compound having 10 or more and less than 20 is denoted as A) | 6.92 | 9.57 | A (a compound having 10 or more and less than 20 is denoted as A)
6 | CC[C@H](C)[C@@H]1NC(=O)[C@H](CC)N(C)C(=O)C[C@@H](C(=O)N(C)C)N(C)C(=O)[C@H](C2CCCC2)N(C)C(=O)C2(CCC2)NC(=O)[C@@H]2CC(F)(F)CN2C(=O)[C@H](CCc2cc(F)c(C(F)(F)F)c(F)c2)NC(=O)CN(C)C(=O)[C@H](CC2CCCCC2)N2CC/C=C\C[C@@H](C2=O)N(C)C(=O)CN(C)C1=O [PP1462, (2S,8S,14S,20S,23S,27S,30S,36S,38Z)-2-(cyclohexylmethyl)-20-cyclopentyl-8-[2-[3,5-difluoro-4-(trifluoromethyl)phenyl]ethyl]-27-ethyl-12,12-difluoro-N,N,4,19,22,26,32,35-octamethyl-30-[(1S)-1-methylpropyl]-3,6,9,15,18,21,25,28,31,34,42-undecaoxo-spiro[1,4,7,10,16,19,22,26,29,32,35-undecazatricyclo[34.5.1.0^10,14]dotetracont-38-ene-17,1′-cyclobutane]-23-carboxamide] | A (a compound having 10 or more and less than 20 is denoted as A) | 7.56 | 9.92 | A (a compound having 10 or more and less than 20 is denoted as A)
7 | CCO[C@@H]1C[C@H]2C(=O)NC3(CCC3)C(=O)N(C)[C@@H](C3CCCC3)C(=O)N(C)[C@H](C(=O)N(C)C)CC(=O)N(C)[C@@H](CSC)C(=O)N[C@@H]([C@@H](C)CC)C(=O)N(C)CC(=O)N(C)[C@H]3C/C=C\CCN(C3=O)[C@@H](CC3CCCCC3)C(=O)N(C)CC(=O)N[C@@H](CCc3cc(F)c(C(F)(F)F)c(F)c3)C(=O)N2C1 [PP1463, (2S,8S,12R,14S,20S,23S,27R,30S,36S,38Z)-2-(cyclohexylmethyl)-20-cyclopentyl-8-[2-[3,5-difluoro-4-(trifluoromethyl)phenyl]ethyl]-12-ethoxy-N,N,4,19,22,26,32,35-octamethyl-30-[(1S)-1-methylpropyl]-27-(methylsulfanylmethyl)-3,6,9,15,18,21,25,28,31,34,42-undecaoxo-spiro[1,4,7,10,16,19,22,26,29,32,35-undecazatricyclo[34.5.1.0^10,14]dotetracont-38-ene-17,1′-cyclobutane]-23-carboxamide] | A (a compound having 10 or more and less than 20 is denoted as A) | 7.35 | 9.89 | A (a compound having 10 or more and less than 20 is denoted as A)
8 | CCC[C@H]1C(=O)N[C@@H]([C@@H](C)CC)C(=O)N(C)CC(=O)N(C)[C@H]2C/C=C\CCN(C2=O)[C@@H](CC2CCCCC2)C(=O)N(C)CC(=O)N[C@@H](CCc2cc(F)c(C(F)(F)F)c(F)c2)C(=O)N2C[C@H](OCC)C[C@H]2C(=O)NC2(CCC2)C(=O)N(C)[C@@H](C2CCCC2)C(=O)N(C)[C@H](C(=O)N(C)C)CC(=O)N1C [PP1464] | A (a compound having 10 or more and less than 20 is denoted as A) | 7.49 | 9.82 | A (a compound having 10 or more and less than 20 is denoted as A)
9 | CC[C@H](C)[C@@H]1NC(=O)[C@H](CC)N(C)C(=O)C[C@@H](C(=O)N(C)C)N(C)C(=O)[C@H](C2CCCC2)N(C)C(=O)C2(CCC2)NC(=O)[C@@H]2C[C@@H](C(F)(F)F)CN2C(=O)[C@H](CCc2cc(F)c(C(F)(F)F)c(F)c2)NC(=O)CN(C)C(=O)[C@H](CC2CCCCC2)N2CC/C=C\C[C@@H](C2=O)N(C)C(=O)CN(C)C1=O [PP1465] | A (a compound having 10 or more and less than 20 is denoted as A) | 7.47 | 9.44 | A (a compound having 10 or more and less than 20 is denoted as A)
10 | CCO[C@@H]1C[C@H]2C(=O)NC3(CCC3)C(=O)N(C)[C@@H](C3CCCC3)C(=O)N(C)[C@H](C(=O)N(C)C)CC(=O)N(C)[C@@H](CC)C(=O)N[C@@H]([C@@H](C)CC)C(=O)N(C)CC(=O)N(C)[C@H]3C/C=C\CCN(C3=O)[C@@H](CC3CCCCC3)C(=O)N(C)CC(=O)N[C@@H](CCc3cc(F)c(C(F)(F)F)c(F)c3)C(=O)N2C1 [PP1466, (2S,8S,12R,14S,20S,23S,27S,30S,36S,38Z)-2-(cyclohexylmethyl)-20-cyclopentyl-8-[2-[3,5-difluoro-4-(trifluoromethyl)phenyl]ethyl]-12-ethoxy-27-ethyl-N,N,4,19,22,26,32,35-octamethyl-30-[(1S)-1-methylpropyl]-3,6,9,15,18,21,25,28,31,34,42-undecaoxo-spiro[1,4,7,10,16,19,22,26,29,32,35-undecazatricyclo[34.5.1.0^10,14]dotetracont-38-ene-17,1′-cyclobutane]-23-carboxamide] | A (a compound having 10 or more and less than 20 is denoted as A) | 7.48 | 9.85 | A (a compound having 10 or more and less than 20 is denoted as A)
11 | CCO[C@@H]1C[C@H]2C(=O)NC3(CCC3)C(=O)N(C)[C@@H](C3CCCC3)C(=O)N(C)[C@H](C(=O)N(C)C)CC(=O)N(C)[C@@H](CC(C)C)C(=O)N[C@@H]([C@@H](C)CC)C(=O)N(C)CC(=O)N(C)[C@H]3C/C=C\CCN(C3=O)[C@@H](CC3CCCCC3)C(=O)N(C)CC(=O)N[C@@H](CCc3cc(F)c(C(F)(F)F)c(F)c3)C(=O)N2C1 [PP1467, (2S,8S,12R,14S,20S,23S,27S,30S,36S,38Z)-2-(cyclohexylmethyl)-20-cyclopentyl-8-[2-[3,5-difluoro-4-(trifluoromethyl)phenyl]ethyl]-12-ethoxy-27-isobutyl-N,N,4,19,22,26,32,35-octamethyl-30-[(1S)-1-methylpropyl]-3,6,9,15,18,21,25,28,31,34,42-undecaoxo-spiro[1,4,7,10,16,19,22,26,29,32,35-undecazatricyclo[34.5.1.0^10,14]dotetracont-38-ene-17,1′-cyclobutane]-23-carboxamide] | A (a compound having 10 or more and less than 20 is denoted as A) | 7.95 | 9.92 | A (a compound having 10 or more and less than 20 is denoted as A)
